Assay [1] has as its system A2780. The assay is described as follows: Anti-proliferative effect (CellTiter-Glo, 72 h), A2780. It counts as cell-based. Particulars: A2780 cells, median, read-out: IC50 antiproliferation assay A2780 [M] (median). The method in brief: (§1)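 A time zero plate, read with CellTiter-Glo shortly after seeding, served as baseline; compound-treated plates were incubated 72 h at 37 °C and then read identically by luminescence.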
Background: In ATP-based viability assays light output follows the ATP content of the culture.

The target of assay [2] is MCL-1 (Homo sapiens, UniProt Q07820). The experiment in a line: Protein-protein interaction assay MCL-1/Noxa BH3 peptide (MCL-1 assay), TR-FRET. It counts as binding. Particulars: MBP-MCL-1 / Noxa BH3-derived peptide, median. The method in brief:
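TR-FRET, 665/622 nm emission ratio (excitation 330–350 nm), measured MCL-1/Noxa complex formation. 1 nM MBP-MCL-1, 50 mM Tris/HCl pH 7, 0.1% BGG, 2 mM DTT. Incubation 1 h at 22 °C, then overnight at 4 °C. IC50 by 4-parameter regression, normalized to DMSO (0%) and no-MCL-1 (100%) controls.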
For orientation: Time-resolved FRET reads energy transfer from a long-lived donor to a nearby acceptor.

Assay [3] deals with SUDHL10. The experiment in a line: Induction of cytotoxicity (CellTiter-Glo, 5 h), SUDHL10. Particulars: Homo sapiens, SU-DHL10, 5 h, read-out: Cytotox SUDHL10 [M] (median), SUDHL10 cells, cytotoxicity induction, CellTiter-Glo, 5 h incubation, median.
For assay [4], the system named is OPM2. The experiment in a line: Anti-proliferative effect (CellTiter-Glo, 72 h), OPM2. Format: cell-based. Particulars: Homo sapiens, OPM-2, 72 h, OPM2 cells, median, read-out: IC50 antiproliferation assay OPM2 [M] (median). The method in brief: as §1
The test system of assay [5] is SUDHL5. The assay is described as follows: Induction of cytotoxicity (CellTiter-Glo, 5 h), SUDHL5. Particulars: Homo sapiens, SU-DHL-5, 5 h, read-out: Cytotox SUDHL5 [M] (median), SUDHL5 cells, cytotoxicity induction, CellTiter-Glo, 5 h incubation, median.
Assay [6] concerns SUDHL5. The assay is described as follows: Induction of caspase-3/7 activity (Caspase-Glo 3/7), SUDHL5. Particulars: Homo sapiens, SU-DHL-5, 3 h, caspase-3/7 induction, SUDHL5 cells, 3 h treatment; median. Format: cell-based. The method in brief:
(§2)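 DLBCL cells treated with compounds for 3 h at 37 °C, then caspase-3/7 activity read by Caspase-Glo 3/7 luminescence. Medium-only background subtracted; EC50 fitted with C0 fixed at 1 and top set to the reference compound's maximal induction.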

Assay [7] deals with SUDHL10. The assay is described as follows: Induction of caspase-3/7 activity (Caspase-Glo 3/7), SUDHL10. Format: cell-based. Particulars: Homo sapiens, SU-DHL10, 3 h, caspase-3/7 induction, SUDHL10 cells, 3 h treatment; median. The method in brief: as §2
In assay [8] the test system is SUDHL5. The experiment in a line: Anti-proliferative effect (CellTiter-Glo, 72 h), SUDHL5. Particulars: Homo sapiens, SU-DHL-5, 72 h, SUDHL5 cells, antiproliferation, 72 h incubation, median, read-out: Antiproli SUDHL5 [M] (median). Format: cell-based. The method in brief:
as §1

The subject of assay [9] is SUDHL10. The experiment in a line: Anti-proliferative effect (CellTiter-Glo, 72 h), SUDHL10. It counts as cell-based. Particulars: Homo sapiens, SU-DHL10, 72 h, SUDHL10 cells, antiproliferation, 72 h incubation, median, read-out: Antiproli SUDHL10 [M] (median). The method in brief:
as §1

The text below walks through data of patent US10981932B2, “Macrocyclic indole derivatives” (Bayer Aktiengesellschaft, priority 2016, dated 2021).

Molecules are shown by their SMILES. Counter-ions that a name gives are not always drawn. Like-named read-outs stand apart in the source and are kept apart here.

Chain of MCL-1 (Q07820 whole entry): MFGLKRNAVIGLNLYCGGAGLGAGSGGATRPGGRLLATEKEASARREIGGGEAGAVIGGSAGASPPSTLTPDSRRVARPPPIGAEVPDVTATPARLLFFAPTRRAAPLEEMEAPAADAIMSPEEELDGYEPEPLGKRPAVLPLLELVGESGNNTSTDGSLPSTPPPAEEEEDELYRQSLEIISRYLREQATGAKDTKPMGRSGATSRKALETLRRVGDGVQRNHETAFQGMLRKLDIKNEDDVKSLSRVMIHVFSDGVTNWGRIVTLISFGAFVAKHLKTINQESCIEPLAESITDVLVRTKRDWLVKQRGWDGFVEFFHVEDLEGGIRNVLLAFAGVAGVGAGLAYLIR

For `CC(C)OCc1nn(C)c2c1-c1cccc3c(CCCOc4cccc5c4CCCC5)c(C(=O)O)n(c13)CCCCOC2` (racemic) [Example 1-69, (rac)-1-methyl-3-[(propan-2-yloxy)methyl]-7-[3-(5,6,7,8-tetrahydronaphthalen-1-yloxy)propyl]-1,10,11,12,13,15-hexahydropyrazolo[4′,3′:9,10][1,6]oxazacycloundecino[8,7,6-hi]indole-8-carboxylic Acid], the IC50 is > 3.3e-05 M in assay [1] (Homo sapiens, A2780, 72 h); 0.0118 µM in assay [2]; > 3.3e-05 M in assay [3]; > 3.3e-05 M in assay [4]; 2.71e-05 M in [5]; > 3.3e-05 M in assay [8]. For the same compound, the IC50 in assay [9] was > 3.3e-05 M. Moreover, the concentration for a half-maximal effect (EC50) in [6] and in [7] was > 33 µM each time.

With `CC(C)OCc1nn(C)c2c1-c1cccc3c(CCCOc4cccc5ccccc45)c(C(=O)O)n(c13)CCCCN(C)C2` (racemic) [Example 1-73, (rac)-1,14-dimethyl-7-[3-(naphthalen-1-yloxy)propyl]-3-[(propan-2-yloxy)methyl]-10,11,12,13,14,15-hexahydro-1H-pyrazolo[3′,4′:8,9][1,6]diazacycloundecino[10,11,1-hi]indole-8-carboxylic Acid], the IC50 came to 1.82e-05 M in assay [1] (Homo sapiens, A2780, 72 h); 0.00713 µM in assay [2]; 1.53e-05 M in assay [3]; 1.17e-05 M in assay [4]; 7e-06 M in [5]; 3.68e-06 M in assay [8]. Besides, the IC50 in [9] turned out to be 9.04e-06 M. For the same compound, the EC50 in assay [6] was determined as 6.83 µM; in [7] it was 11.9 µM.

Take `CN1CCCn2c(C(=O)O)c(CCCOc3cccc4ccccc34)c3cccc(c32)-c2cnn(C)c2C1` (racemic) [Example 1-96, (rac)-7,9-dimethyl-1-[3-(naphthalen-1-yloxy)propyl]-4,5,6,7,8,9-hexahydropyrazolo[3′,4′:7,8][1,5]diazecino[9,10,1-hi]indole-2-carboxylic Acid]: the IC50 in [1] (Homo sapiens, A2780, 72 h) was 2.05e-05 M; in assay [2], 0.0173 µM; in assay [3], 2.95e-05 M; in [4], > 3.3e-05 M; in assay [5] it was 1.84e-05 M; in assay [8], > 3.3e-05 M. In [9], the IC50 came out at 1.44e-05 M. For the same compound, the values for the EC50 in [6] and in [7] were 23.9 µM and > 33 µM, respectively.

For `Cn1nc(COc2ccc(N3CCN(CCC(C)(C)O)CC3)cc2)c2c1COCCCCn1c(C(=O)O)c(CCCOc3cccc4ccccc34)c3cccc-2c31` (racemic) [Example 1-121, (rac)-3-({4-[4-(3-hydroxy-3-methylbutyl)piperazin-1-yl]phenoxy}methyl)-1-methyl-7-[3-(naphthalen-1-yloxy)propyl]-1,10,11,12,13,15-hexahydropyrazolo[4′,3′:9,10][1,6]oxazacycloundecino[8,7,6-hi]indole-8-carboxylic Acid Ammonium Salt], the IC50 amounted to 9.61e-06 M in assay [1] (Homo sapiens, A2780, 72 h); 0.00436 µM in [2]; 6.21e-06 M in [3]; 8.33e-06 M in assay [4]; 3.07e-06 M in assay [5]; 5.79e-06 M in assay [8]. Besides, the IC50 in assay [9] was determined as 5.07e-06 M. Moreover, the concentration for a half-maximal effect (EC50) in assay [6] was 2.66 µM; in [7], 8.04 µM.

`Cc1cc(OCCCc2c(C(=O)O)n3c4c(cccc24)-c2c(C)nn(C)c2COCCCC3)cc(C)c1Cl` (racemic) [Example 009, (rac)-7-[3-(4-chloro-3,5-dimethylphenoxy)propyl]-1,3-dimethyl-1,10,11,12,13,15-hexahydropyrazolo[4′,3′:9,10][1,6]oxazacycloundecino[8,7,6-hi]indole-8-carboxylic Acid]: the IC50 in assay [1] (Homo sapiens, A2780, 72 h) came out at 2.25e-05 M; in assay [2] it was 0.00632 µM; in [3], 2.04e-05 M; in [4], 2.1e-05 M; in assay [5] it was 1.11e-05 M; in assay [8], 3.62e-06 M. The IC50 in [9] amounted to 8.05e-06 M. In addition, the EC50 in [6] was found to be 9.89 µM; in assay [7], 17.8 µM.

In the case of `Cc1nn(C)c2c1-c1cccc3c(CCCOc4cccc5cc(F)ccc45)c(C(=O)O)n(c13)CCCCOC2` (racemic) [Example 018, (rac)-7-{3-[(6-fluoronaphthalen-1-yl)oxy]propyl}-1,3-dimethyl-1,10,11,12,13,15-hexahydropyrazolo[4′,3′:9,10][1,6]oxazacycloundecino[8,7,6-hi]indole-8-carboxylic Acid], the IC50 in assay [1] (Homo sapiens, A2780, 72 h) was > 3.3e-05 M; in assay [2] it was 0.00453 µM; in [3], 9.04e-06 M; in assay [4], 9.67e-06 M; in assay [5], 3.77e-06 M; in [8], 2.32e-06 M. In addition, the IC50 in assay [9] was determined as 7.88e-06 M. The results for the EC50 in [6] and in assay [7] were 4.43 µM and 9.64 µM, respectively.

Take `Cc1nn(C)c2c1-c1cccc3c(CCCOc4ccc(F)c5ccccc45)c(C(=O)O)n(c13)CCCCOC2` (racemic) [Example 021, (rac)-7-{3-[(4-fluoronaphthalen-1-yl)oxy]propyl}-1,3-dimethyl-1,10,11,12,13,15-hexahydropyrazolo[4′,3′:9,10][1,6]oxazacycloundecino[8,7,6-hi]indole-8-carboxylic Acid]: the IC50 is 2.52e-05 M in assay [1]; > 3.3e-05 M in [1] (Homo sapiens, A2780, 72 h); 0.011 µM in assay [2]; > 3.3e-05 M in [3]; > 3.3e-05 M in [4]; 1.82e-05 M in [5]. Further, the IC50 in assay [8] amounted to 2.4e-05 M; in [9], 5.25e-06 M. Further, the half-maximal effective concentration (EC50) in assay [6] is 13.4 µM; in assay [7], > 33 µM.

In the case of `COCCn1nc2c(c1C)-c1cccc3c(CCCOc4cccc5ccccc45)c(C(=O)O)n(c13)CCCN(C)C2` (racemic) [Example 052, (rac)-10-(2-methoxyethyl)-7,11-dimethyl-1-[3-(naphthalen-1-yloxy)propyl]-4,5,6,7,8,10-hexahydropyrazolo[3′,4′:7,8][1,5]diazecino[9,10,1-hi]indole-2-carboxylic Acid], the IC50 amounted to 7.41e-06 M in [1] (Homo sapiens, A2780, 72 h); 0.028 µM in [2]; 2.97e-05 M in [3]; 3.07e-05 M in assay [4]; 2.68e-05 M in assay [5]; 2.15e-06 M in assay [8]. Further, the IC50 in [9] stood at 1.3e-05 M. Also, the 50% effective concentration (EC50) was 29.9 µM in assay [6] and > 33 µM in assay [7].

For `Cc1c2c(nn1CCN1CCOCC1)COCCCCn1c(C(=O)O)c(CCCOc3cccc4ccccc34)c3cccc-2c31` (racemic) [Example 053, (rac)-3-methyl-2-[2-(morpholin-4-yl)ethyl]-7-[3-(naphthalen-1-yloxy)propyl]-2,10,11,12,13,15-hexahydropyrazolo[4′,3′:9,10][1,6]oxazacycloundecino[8,7,6-hi]indole-8-carboxylic Acid], the IC50 in [1] (Homo sapiens, A2780, 72 h) is > 3.3e-05 M; in assay [2], 0.00341 µM; in assay [3] it was 7.75e-06 M; in [4], 1.11e-05 M; in [5], 3e-06 M; in assay [8], 1.47e-06 M. The IC50 in assay [9] worked out at 7.88e-06 M. Moreover, the figures for the EC50 in assay [6] and in [7] were 2.51 µM and 5.67 µM, respectively.

Usually EC50 stands for the concentration that produces a half-maximal response. Low readings indicate higher potency in that assay, high ones lower potency in that assay.
